Laboratory results as given in patent US4935579A, “Separation of m-diisopropylbenzene from p-diisopropylbenzene by azeotropic distillation with alcohols” (priority 1988, dated 1990).

Columns and labels:
[1] = Vapor-liquid equilibrium still: relative volatility of m-DIPB to p-DIPB with alcohol agent and azeotrope boiling point; format: physicochemical; details: for Relative Volatility (m-DIPB to p-DIPB): vapor-liquid equilibrium still; for Relative Volatility (m-DIPB to p-DIPB) / Azeotrope B.P.: starting mixture 50 % alcohol, 25 % m-DIPB, 25 % p-DIPB; for Azeotrope B.P.: 640 mm. Hg; for vapor composition, m-DIPB / vapor composition, p-DIPB: gas chromatography; for relative volatility of m-DIPB to p-DIPB: Examples 1 and 2, reflux thirteen or eleven hours
Source text: The data in Tables 2 and 3 were obtained in a vapor-liquid equilibrium still. In each case, the starting material was a mixture containing 50 % alcohol, 25 % m-DIPB and 25 % p-DIPB. The boiling points of the azeotropes at 640 mm. Hg are shown. The relative volatilities are listed for each of the alcohols investigated.
Forty grams of m-DIPB - p-DIPB mixture and 40 grams of diethylene glycol butyl ether were charged to an Othmer type vapor-liquid equilibrium still and refluxed for thirteen hours. Analysis by gas chromatography gave a vapor composition of 68.9% m-DIPB, 31.1% p-DIPB; a liquid decomposition of […], 36.8% p-DIPB. This indicates a relative volatility of m-DIPB to p-DIPB of 1.29.
Forty grams of m-DIPB - p-DIPB mixture and 40 grams of diethylene gylcol methyl ether were charged to the vapor-liquid equilibrium still and refluxed for eleven hours. Analysis indicated a vapor composition of 66.7% m-DIPB, 33.3% p-DIPB; a liquid composition of […] which is a relative volatility of 1.28.

[2] = Boiling point and rectification of the isomers without agent; format: physicochemical; details: 99% purity, 75% efficiency, no agent
Experimental: In the manufacture of cumene, also called isopropylbenzene, by the alkylation of benzene with propylene, the most prevalent by-products are the diisopropylbenzenes with the meta and para isomers comprising most of the by-product. m-Diisopropylbenzene (m-DIPB) boils at 203.2° C. […] boils at 210.3° C. and these two have a relative volatility of 1.14. The difficulty of separating these two by rectification can be shown by the data in Table 1.
that rectification of m-DIPB from p-DIPB in 99% purity requires 95 actual plates. Using azeotropic distillation with an agent yielding a relative volatility of 1.29 would require only 48 actual plates.

[3] = m-DIPB and p-DIPB, no agent; cited from earlier work
[4] = no agent; prior art description; cited from earlier work
[5] = Packed rectification column (Berl saddles, 2.3 theoretical plates), Fenske equation; format: physicochemical; details: 80 g m-DIPB, 20 g p-DIPB, 40 g agent, two hours total reflux
Source text: A solution comprising 80 grams of m-DIPB, 20 grams of p-DIPB and 40 grams of o-isopropyl phenol was placed in the stillpot and heated. After two hours of refluxing a total reflux, analysis was made by gas chromatography. The overhead composition was 78% m-DIPB, 22% p-DIPB and the stillpot analysis was 62.7% m-DIPB, 37.3% p-DIPB. Using these compositions in the Fenske equation with the number of theoretical plates in the column being 2.3 gave an average relative volatility of 1.34 for each theoretical plate.

[6] = 40 g m-DIPB - p-DIPB mixture and 40 g agent

Row | Compound | Relative Volatility (m-DIPB to p-DIPB) [1] | Azeotrope B.P. [1] [°C] | other results
1 | CCCCCCCCO [1-Octanol] | 1.14 |  | 
2 | CCCCC(CC)CO (stereo not drawn) [2-Ethyl hexanol] | 1.27 | 183 | Relative Volatility of alcohol:DIPB mixture ([1]; one part agent with one part m-DIPB - p-DIPB mixture): 1.27
3 | CCCCCCC(C)O (stereo not drawn) [2-Octanol] | 1.10 |  | 
4 | OCc1ccccc1 [Benzyl alcohol] | 1.11 |  | 
5 | CCCCOCCOCC(C)O (stereo not drawn) [Butoxyethoxypropanol] | 1.17 | 199 | 
6 | CC(=O)CC(C)(C)O [Diacetone alcohol] | 1.13 |  | 
7 | CCCCOCCOCCO [Diethylene glycol butyl ether] | 1.29 | 200 | liquid composition, m-DIPB [1, 6]: 63.2%; liquid composition, p-DIPB (second figure) [1, 6]: 36.8%; vapor composition, m-DIPB [1, 6]: 68.9%; vapor composition, p-DIPB [1, 6]: 31.1%; relative volatility of m-DIPB to p-DIPB [1, 6]: 1.29
8 | CCOCCOCCO [Diethylene glycol ethyl ether] | 1.25 | 185 | 
9 | COCCOCCO [Diethylene glycol methyl ether] | 1.28 | 182 | liquid composition, m-DIPB [1, 6]: 60.9%; vapor composition, m-DIPB [1, 6]: 66.7%; vapor composition, p-DIPB [1, 6]: 33.3%; relative volatility of m-DIPB to p-DIPB [1, 6]: 1.28
10 | CC(C)CC(O)CC(C)C [Diisobutyl carbinol] | 1.20 | 180 | 
11 | CCCCOCCO [Ethylene glycol butyl ether] | 0.6 |  | 
12 | CCCCCCOCCO [Ethylene glycol hexyl ether] | 1.26 | 195 | 
13 | OCCOc1ccccc1 [Ethylene glycol phenyl ether] | 1.14 |  | 
14 | CC(C)CCCCCCO [Isononyl alcohol] | 1.22 | 194 | 
15 | CC(C)CCCCCO [Isooctanol] | 1.15 |  | 
16 | OCCc1ccccc1 [Phenethyl alcohol] | 1.06 |  | 
17 | Oc1ccccc1 [Phenol] | 1.24 | 174 | 
18 | CC(O)CO (stereo not drawn) [Propylene glycol] | 1.28 | 168 | 
19 | OCC1CCCO1 (stereo not drawn) [Tetrahydrofurfuryl alcohol] | 1.21 | 171 | 
20 | Cc1cccc(O)c1 [m-Cresol] | 1.17 | 189 | 
21 | CC(C)c1cccc(C(C)C)c1 [m-DIPB, m-Diisopropylbenzene] |  |  | actual plates required for rectification of m-DIPB from p-DIPB [2]: 95 actual plates; relative volatility used in column calibration [3]: 1.14; boiling point [4]: 203.2 °C; relative volatility of m-DIPB and p-DIPB without agent [4]: 1.14
22 | CCCCCCO [n-Hexanol] | 1.10 |  | 
23 | CCCCCCCCCO [n-Nonyl alcohol] | 1.23 | 196 | 
24 | Cc1ccccc1O [o-Cresol] | 1.26 | 184 | 
25 | CC(C)c1ccccc1O [o-Isopropyl phenol] | 1.34 | 200 | overhead composition, m-DIPB [5]: 78%; overhead composition, p-DIPB [5]: 22%; stillpot composition, m-DIPB [5]: 62.7%; stillpot composition, p-DIPB [5]: 37.3%; average relative volatility for each theoretical plate ([5]; Fenske equation, 2.3 plates): 1.34
26 | CCC(C)c1ccccc1O (stereo not drawn) [o-sec. Butyl phenol] | 1.23 | 205 | 
27 | CC(C)(C)c1ccccc1O [o-tert. Butyl phenol] | 1.20 | 205 | 
28 | Cc1ccc(O)cc1 [p-Cresol] | 1.25 | 188 | 
29 | CC(C)c1ccc(C(C)C)cc1 [p-DIPB, p-diisopropylbenzene] |  |  | boiling point [4]: 210.3 °C
30 | Dipropylene glycol methyl ether |  | 186 | 
